Measured values as given in article PMC11945486, “TAS1R2/TAS1R3 Single-Nucleotide Polymorphisms Affect Sweet Taste Receptor Activation by Sweeteners: The SWEET Project” (Nutrients, 2025).

Target: T1, human TAS1R2-I191V (subunit alone) (Homo sapiens, UniProt Q8TE23, I191V)
T1 construct: expressed in transfected cells; host or cells: HEK293T-Gα16gust44
T1 sequence (Q8TE23 20-839 I191V): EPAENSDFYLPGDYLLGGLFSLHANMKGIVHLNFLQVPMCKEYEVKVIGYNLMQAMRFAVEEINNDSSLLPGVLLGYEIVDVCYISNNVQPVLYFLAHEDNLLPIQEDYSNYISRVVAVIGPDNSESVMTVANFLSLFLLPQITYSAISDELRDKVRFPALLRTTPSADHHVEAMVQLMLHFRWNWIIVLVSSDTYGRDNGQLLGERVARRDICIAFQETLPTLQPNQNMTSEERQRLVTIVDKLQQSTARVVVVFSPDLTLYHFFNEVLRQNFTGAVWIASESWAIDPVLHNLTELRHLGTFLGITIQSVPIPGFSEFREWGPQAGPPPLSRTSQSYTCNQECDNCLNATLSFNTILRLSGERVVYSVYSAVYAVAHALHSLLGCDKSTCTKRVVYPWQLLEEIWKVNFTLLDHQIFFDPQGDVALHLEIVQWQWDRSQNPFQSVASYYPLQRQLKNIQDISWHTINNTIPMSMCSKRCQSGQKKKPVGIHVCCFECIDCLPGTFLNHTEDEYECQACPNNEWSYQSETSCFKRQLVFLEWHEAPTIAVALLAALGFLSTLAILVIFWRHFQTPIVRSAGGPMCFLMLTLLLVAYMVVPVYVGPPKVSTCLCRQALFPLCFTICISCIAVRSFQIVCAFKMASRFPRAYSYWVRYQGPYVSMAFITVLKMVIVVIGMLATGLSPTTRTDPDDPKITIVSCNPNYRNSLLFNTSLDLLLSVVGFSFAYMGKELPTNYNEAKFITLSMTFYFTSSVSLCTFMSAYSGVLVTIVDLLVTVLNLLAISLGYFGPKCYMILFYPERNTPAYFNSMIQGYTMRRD
Assay: Calcium mobilisation assay, TAS1R2-I191V subunit alone
Format: cell-based
From the text: The coding sequences for TAS1R2 and TAS1R3 were commercially synthesised, and the human codon was optimised for expression in human cells. The coding sequences of human TAS1R2 and TAS1R3 were subcloned and inserted into the mammalian expression vectors pcDNA6/myc-HisA and pcDNA4/myc-HisA (Invitrogen; Thermo Fisher Scientific; Illkirch, France) between the EcoRI and NotI restriction sites, generating the plasmids pcDNA6-TAS1R2 and pcDNA4-TAS1R3, respectively. To increase protein expression in mammalian cells, an upstream start codon was used, which was a sequence called MAX, corresponding to the QBI SP163 element also described in pcDNA4-HisMax (Invitrogen; Thermo Fisher Scientific; Illkirch, France). To measure the expression level of the receptor by immunohistochemistry, we used the FLAG sequence ([…]) in the C-terminal position, which encodes the FLAG tag epitope. […]
The HEK293T cells were kindly provided by Jay P. Slack (Givaudan Flavors Corporation; Cincinnati, OH, USA). […] The fluorescence intensity was measured for 90 s (excitation 488 nm, emission 510 nm) in an automated fluorometric FlexStation®3 Multi-Mode microplate reader (Molecular Devices; San Jose, CA, USA). […] The Ca^2+ changes were expressed as fractional changes in fluorescent light intensity: ΔF/F = (F − F0)/F0, where F was the fluorescent light intensity at each point, and F0 was the value of emitted fluorescent light prior to stimulus application. To calculate dose–response relationships, the changes in fluorescence upon stimulus application were averaged, mock-subtracted and baseline-corrected. […] The half-maximal effective concentrations (EC50 values) and maximal signal amplitudes were calculated using SigmaPlot software (version 15.0) (Systat Software; San Jose, CA, USA).
For in vitro calcium mobilisation assay performed on hTAS1R2-SNPs, hTAS1R3-SNPs and mTAS1R3-I60T, 6 to 7 concentrations were tested for each sweet compound, plus buffer alone. All concentration–receptor combinations were measured in duplicate, and each experiment was repeated at least 4 times (8 wells/concentration). […]

Compound: C=C(C)[C@@H]1CC=C(/C=N/O)CC1 [Perillartine, perillartine]
- EC50: 390 ± 47 µM
- R1 = Variant EC50/WT EC50: 4.3
- Max ΔF/F0 (maximal signal amplitude): 0.19 ± 0.01
